Test results as given in paper PMC9267659, “Directed Evolution of Phi Class Glutathione Transferases Involved in Multiple-Herbicide Resistance of Grass Weeds and Crops” (International Journal of Molecular Sciences, 2022).
Substitutions are numbered along the chain they refer to.

How the values were obtained:
[1] = biological target: T1, AmGSTF (Alopecurus myosuroides, UniProt Q9ZS17); assay: dose-response inhibition of GST activity; type: biochemical
T1 construct: gene GST2c; full length, synthetic gene, His-tagged (C-His vector), E. coli, Ni-IDA-Sepharose purified, homodimer
T1 sequence (Q9ZS17 1-219): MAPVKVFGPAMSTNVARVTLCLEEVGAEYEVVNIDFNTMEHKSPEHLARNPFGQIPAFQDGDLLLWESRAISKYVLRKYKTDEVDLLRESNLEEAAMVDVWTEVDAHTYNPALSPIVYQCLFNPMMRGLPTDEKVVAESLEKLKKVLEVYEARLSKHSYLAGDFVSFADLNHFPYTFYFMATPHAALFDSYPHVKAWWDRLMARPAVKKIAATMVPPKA
From the text: dose-response inhibition of GST activity on AmGSTF

[2] = biological target: T2, HvGSTF (Hordeum vulgare, UniProt Q8VWW3); assay: dose-response inhibition of GST activity; type: biochemical
T2 construct: gene GST6; full length, pEXP5-CT/TOPO template, His-tagged, E. coli, Ni-IDA-Sepharose purified, homodimer
T2 sequence (Q8VWW3 1-219): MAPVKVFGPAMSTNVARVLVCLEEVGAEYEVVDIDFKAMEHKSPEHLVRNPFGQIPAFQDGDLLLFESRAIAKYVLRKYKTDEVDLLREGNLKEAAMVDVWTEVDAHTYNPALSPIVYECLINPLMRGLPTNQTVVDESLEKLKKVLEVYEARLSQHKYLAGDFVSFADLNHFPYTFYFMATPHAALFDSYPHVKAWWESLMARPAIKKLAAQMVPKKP
From the text: dose-response inhibition of GST activity on HvGSTF

[3] = system: T3, sh168; assay: dose-response inhibition of GST activity; type: biochemical, Alopecurus myosuroides
T3 construct: gene AmGSTF; has K93; keeps F122, M125 and DEK132-134 of AmGSTF; C-His, E. coli, dimer
From the text: dose-response inhibition of GST activity on sh168

[4] = system: T4, sh49; assay: dose-response inhibition of GST activity; type: biochemical, Alopecurus myosuroides
T4 construct: gene AmGSTF; keeps F122, M125, E93 and DEK132-134 of AmGSTF; C-His, E. coli, dimer
From the text: dose-response inhibition of GST activity on sh49

[5] = system: T5, sh155; assay: dose-response inhibition of GST activity; type: biochemical, Alopecurus myosuroides
T5 construct: gene AmGSTF; DNA-shuffled GSTF, 17 mutations vs AmGSTF (named in text: S90G, E93K, Q119E, F122I, M125L, DEK132-134NQT)
From the text: dose-response inhibition of GST activity on sh155

[6] = biological target: T6, TdGSTF (Triticum turgidum, UniProt A0A9R0QM20); assay: dose-response inhibition of GST activity; type: biochemical
T6 construct: gene TRITD_1Bv1G036980; full length, pEXP5-CT/TOPO template, His-tagged, E. coli, Ni-IDA-Sepharose purified, homodimer
T6 sequence (A0A9R0QM20 1-219): T2 sequence (Q8VWW3 1-219) with D82N, E83G, N91D, L113I, K158E, S200R, I207V
From the text: dose-response inhibition of GST activity on TdGSTF

[7] = system: T7, sh101; assay: dose-response inhibition of GST activity; type: biochemical, Alopecurus myosuroides
T7 construct: gene AmGSTF; DNA-shuffled GSTF, 11 mutations vs AmGSTF (named in text: S90G, E93K, Q119E, F122I, M125L, DEK132-134NQT)
From the text: dose-response inhibition of GST activity on sh101

[8] = biological target: T8, LrGSTF (Lolium rigidum, UniProt M5BPX4); assay: dose-response inhibition of GST activity; type: biochemical
T8 construct: gene GST; full length, synthetic gene, His-tagged (C-His vector), E. coli, Ni-IDA-Sepharose purified, homodimer
T8 sequence (M5BPX4 1-219): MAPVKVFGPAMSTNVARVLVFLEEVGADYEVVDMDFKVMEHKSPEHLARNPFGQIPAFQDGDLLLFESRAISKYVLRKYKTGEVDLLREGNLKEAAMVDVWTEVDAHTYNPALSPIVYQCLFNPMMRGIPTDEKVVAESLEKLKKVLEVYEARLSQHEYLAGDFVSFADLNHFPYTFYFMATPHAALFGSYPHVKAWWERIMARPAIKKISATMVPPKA
From the text: dose-response inhibition of GST activity on LrGSTF

[9] = biological target: T2, HvGSTF; assay: steady-state kinetics, CDNB conjugation; type: biochemical; conditions: read-out: S0.5 (mM) / CDNB; co-substrate GSH; 0.1 M sodium phosphate pH 6.5, 37 °C; positive cooperativity, nH 1.46
From the text: steady-state kinetics, CDNB conjugation on HvGSTF

[10] = system: T7, sh101; assay: steady-state kinetics, CDNB conjugation; type: biochemical, Alopecurus myosuroides; conditions: co-substrate GSH; 0.1 M sodium phosphate pH 6.5, 37 °C; nH 1.1; read-out: S0.5 (mM) / CDNB
From the text: steady-state kinetics, CDNB conjugation on sh101

[11] = biological target: T6, TdGSTF; assay: steady-state kinetics, CDNB conjugation; type: biochemical; conditions: read-out: S0.5 (mM) / CDNB; co-substrate GSH; 0.1 M sodium phosphate pH 6.5, 37 °C; positive cooperativity, nH 1.43
From the text: steady-state kinetics, CDNB conjugation on TdGSTF

[12] = system: T5, sh155; assay: steady-state kinetics, CDNB conjugation; type: biochemical, Alopecurus myosuroides; conditions: co-substrate GSH; 0.1 M sodium phosphate pH 6.5, 37 °C; nH 1.02; read-out: S0.5 (mM) / CDNB
From the text: steady-state kinetics, CDNB conjugation on sh155

[13] = biological target: T8, LrGSTF; assay: steady-state kinetics, CDNB conjugation; type: biochemical; conditions: read-out: S0.5 (mM) / CDNB; co-substrate GSH; 0.1 M sodium phosphate pH 6.5, 37 °C; positive cooperativity, nH 1.41
From the text: steady-state kinetics, CDNB conjugation on LrGSTF

[14] = biological target: T1, AmGSTF; assay: steady-state kinetics, CDNB conjugation; type: biochemical; conditions: read-out: S0.5 (mM) / CDNB; co-substrate GSH; 0.1 M sodium phosphate pH 6.5, 37 °C; positive cooperativity, nH 1.5
From the text: steady-state kinetics, CDNB conjugation on AmGSTF

Q: Which results are given for `CCCCOCN(C(=O)CCl)c1c(CC)cccc1CC` [butachlor]?
A: IC50 [1]: 7.3 ± 0.4 µM; IC50 [2]: 9.2 ± 0.6 µM; IC50 [3]: 3.1 ± 0.08 µM; IC50 [4]: 2600 ± 40 nM; IC50 [5]: 3.4 ± 0.1 µM; IC50 [6]: 9.9 ± 0.2 µM; IC50 [7]: 5.9 ± 0.4 µM; IC50 [8]: 7.1 ± 0.5 µM

Q: With `O=[N+]([O-])c1ccc(Cl)c([N+](=O)[O-])c1` [CDNB] as the molecule, how does the Km [9] read?
A: The Km was 0.52 ± 0.01 mM.

Q: What about the Km [10] of the same molecule?
A: Its Km is 0.41 ± 0.02 mM.

Q: What about the Km [11] of the same molecule?
A: Its Km is 0.51 ± 0.02 mM.

Q: What about the Km [12] of the same molecule?
A: Its Km is 0.77 ± 0.06 mM.

Q: What about the Km [13] of the same molecule?
A: Its Km is 0.76 ± 0.04 mM.

Q: And the Km [14]?
A: The Km was 0.65 ± 0.03 mM.
